Patent publication US12365680B2, “Polymorphs of the hydrochloride salt of linaprazan glurate” (Cinclus Pharma Holding AB (Publ), priority 2021, dated 2025)
Entries after “also recorded” stand apart in the source; their conditions may differ. Where a name gives a salt, the structure may show the parent alone.

How the values were obtained:
[1] = Dynamic vapour sorption (DVS) hygroscopicity; assay type: physicochemical
Description: Analyses were performed on an SMS DVS-1 instrument. A few mg of the substance was added into an Al pan and exposed to stepwise RH changes during two identical consecutive cycles according to 0-10-20-30-40-50-60-70-80-90-80-70-60-50-40-30-20-10-0% RH using open loop mode. The experiments were performed using a gas flow rate of 200 mL/min and at 25° C. The dm/dt criteria applied was 0.001 weight-%/min during a 5-minutes window, with a maximum allowed time of 360 minutes and a minimum allowed time of 10 minutes for all steps.
The hygroscopicity of Form 1 (obtained by crystallisation from DMF using EtOAc as the anti-solvent) and Form 2 (obtained from a slurry in MeOH) was investigated using DVS at 25° C. […] With a water uptake of 0.2% at 90% RH, Form 1 can be classified as non-hygroscopic.
The water uptake is rapid when the relative humidity is increased, and the water loss is equally rapid when the relative humidity is decreased. The sorption behaviour is typical for a channel hydrate, where the crystal structure adapts to accommodate different amounts of water depending on the surrounding humidity. The water uptake of 4.7% at 90% RH corresponds to 1.3 water molecules per linaprazan glurate HCl unit.

[2] = Solubility of free base and HCl salt in media simulating gastric fluid (FaSSGF, FeDSGA); assay type: physicochemical; conditions: after 1 hour
Description: For solubility studies, HPLC was performed using an Agilent 1100 series Liquid Chromatography system, equipped with DAD spectrometer. Analyses were performed using a Waters X Bridge BEH C18 column (4.6×100 mm, 2.5 μm) at 30° C. Mobile phase: A=0.1% formic acid in water, B=0.1% formic acid in acetonitrile. Flow rate 0.8 mL/min. Mobile phase program:
The solubility of the crystalline free base (Form A) and the crystalline HCl salt of linaprazan glurate (mixture of Forms 1 and 2) was studied in Fasted State Simulated Gastric Fluid (FaSSGF, Biorelevant, batch FFF-0119-B; pH 1.6) and Fed State Gastric Acid (FeDSGA, Biorelevant, batch FEDGAS-120-A; pH 5.0).
Saturated solutions were prepared in 4 mL vials by adding a fixed weight of the crystalline base or the crystalline HCl salt to 2 mL of each of the different buffer solutions. Vials were sonicated for 10 minutes and then stirred with a magnetic stirrer on a water bath (37° C.) for 24 hours. Samples were taken after 1, 4 and 24 hours, in replicates, and analysed by HPLC-UV. Concentrations were calculated from a calibration curve, constructed using 8 calibration standards (serial dilutions of stock solutions of the free base and the HCl salt of linaprazan glurate).

[3] = cited from earlier work
[4] = Pharmacokinetics of linaprazan glurate after absorption; conditions: in vivo
[5] = Phase I and II studies; cited from earlier work
intragastric acidity = experiment: Clinical Phase I study of linaprazan glurate, intragastric pH; assay type: in vivo; conditions: human, plasma, oral; after 22 hours; to maintain intra-gastric pH above 4 for 24 hours; read-out: minimal plasma concentration (Cmin) of linaprazan required

Cc1cccc(C)c1CNc1cc(C(=O)NCCOC(=O)CCCC(=O)O)cn2c(C)c(C)nc12 [Form 1]
hygroscopicity (in words) ([1]; DVS at 25° C.): non-hygroscopic; also recorded: very low hygroscopicity

Cc1cccc(C)c1CNc1cc(C(=O)NCCOC(=O)CCCC(=O)O)cn2c(C)c(C)nc12 [Form 2]
hygroscopicity (in words) ([1]; DVS at 25° C.): significant uptake of water at elevated humidities | water uptake ([1]; DVS at 25° C., 90% RH): 4.7% | water molecules per linaprazan glurate HCl unit ([1]; corresponds to water uptake at 90% RH): 1.3

Cc1cccc(C)c1CNc1cc(C(=O)NCCOC(=O)CCCC(=O)O)cn2c(C)c(C)nc12 [HCl salt]
solubility of the HCl salt relative to the free base ([2]; FeDSGA pH 5.0, 37° C.): more than 6.5 times

Cc1cccc(C)c1CNc1cc(C(=O)NCCOC(=O)CCCC(=O)O)cn2c(C)c(C)nc12 [free base]
solubility of the free base relative to the HCl salt ([2]; FaSSGF pH 1.6, 37° C.): about 1.4 times | solubility at pH 1 ([3]; pH 1): only slightly soluble | solubility in water at pH 6.8 ([3]; pH 6.8): practically insoluble

Cc1cccc(C)c1CNc1cc(C(=O)NCCOC(=O)CCCC(=O)O)cn2c(C)c(C)nc12 [linaprazan glurate, 5-{2-[({8-[(2,6-dimethylbenzyl)amino]-2,3-dimethylimidazo[1,2-a]pyridine-6-yl}carbonyl)-amino]ethoxy}-5-oxopentanoic acid]
half-life in the body compared to linaprazan [4]: longer half-life | metabolism following absorption into the blood stream [4]: quickly metabolized into linaprazan | plasma concentration [4]: only very low and difficult to determine

Cc1cccc(C)c1CNc1cc(C(=O)NCCO)cn2c(C)c(C)nc12 [linaprazan]
elimination [5]: quickly eliminated from the body | onset of action and effect [5]: fast onset of action and full effect at first dose | tolerability [5]: well tolerated | concentration at 22 h (intragastric acidity): ≥ 240 nM
